Source: US20060240048A1 (priority 2002, published 2006)

Biological target: T1, human cannabinoid CB2 receptor (Homo sapiens, UniProt P34972)
T1 construct: expressed in transfected cells; host or cells: Saccharomyces cerevisiae strain MMY23
Test: Cannabinoid CB2 receptor agonist activity, yeast reporter assay (FDGlu fluorescence);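 as to Emax: 100% equals maximal response of reference agonist HU210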
Format: cell-based
Conditions: for Emax: read-out: efficacy value (Emax) at the cloned human cannabinoid CB2 receptor

T1 sequence (P34972 whole entry): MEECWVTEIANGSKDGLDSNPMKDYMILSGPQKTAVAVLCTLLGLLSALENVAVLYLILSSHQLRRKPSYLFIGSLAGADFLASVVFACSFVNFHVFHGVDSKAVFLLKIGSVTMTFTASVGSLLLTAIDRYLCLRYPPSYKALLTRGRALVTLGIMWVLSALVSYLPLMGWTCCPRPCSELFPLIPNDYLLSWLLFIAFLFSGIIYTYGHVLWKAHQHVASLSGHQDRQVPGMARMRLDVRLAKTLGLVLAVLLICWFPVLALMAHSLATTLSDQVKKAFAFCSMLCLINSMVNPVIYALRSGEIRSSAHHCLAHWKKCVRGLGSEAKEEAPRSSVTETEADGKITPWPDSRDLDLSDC

| Structure (SMILES) | EC50 [nM] | Emax [%] |
| --- | --- | --- |
| O=C(NCC1CCC1)c1cnc(Nc2cccc(Cl)c2)cc1C(F)(F)F [Example 112, N-Cyclobutylmethyl-6-(3-chlorophenylamino)-4-tri-fluoromethyl-nicotinamide] | < 300 | > 50 |
| CC(C)CNC(=O)c1cnc(Nc2cccc(Cl)c2)cc1C(F)(F)F [Example 113, N-Isobutyl-6-(3-chloro-phenylamino)-4-trifluoro-methyl-nicotinainide] | < 300 | > 50 |
| O=C(NCC1CCCC1)c1cnc(Nc2cccc(Cl)c2)cc1C(F)(F)F [Example 114, N-Cyclopentylmethyl-6-(3-chlorophenylamino)-4-tri-fluoromethyl-nicotinamide] | < 300 | > 50 |
| O=C(NCC1CC1)c1cnc(Nc2cccc(Cl)c2)cc1C(F)(F)F [Example 115, N-Cyclopropylmethyl-6-(3-chlorophenylamino)-4-tri-fluoromethyl-nicotinamide] | < 300 | > 50 |
| O=C(NCC1CCCCC1)c1cnc(Nc2cccc(Br)c2)cc1C(F)(F)F [Example 116, N-Cyclohexylmethyl-6-(3-bromophenylamino)-4-tri-fluoromethyl-nicotinamide] | < 300 | > 50 |
| O=C(NCC1CCCCCC1)c1cnc(Nc2cccc(Br)c2)cc1C(F)(F)F [Example 117, N-Cycloheptylmethyl-6-(3-bromophenylamino)-4-tri-fluoromethyl-nicotinamide] | < 300 | > 50 |
| O=C(NCC1CCOCC1)c1cnc(Nc2cccc(Br)c2)cc1C(F)(F)F [Example 118, N-(Tetrahydropyran-4-yl-methyl)-6-(3-bromophenyl-amino)-4-trifluoromethyl-nicotinamide] | < 300 | > 50 |
| O=C(NC1CCC1)c1cnc(Nc2cccc(Br)c2)cc1C(F)(F)F [Example 119, N-Cyclobutyl-6-(3-bromo-phenylamino)-4-trifluoro-methyl-nicotinamide] | < 300 | > 50 |
| O=C(NCC1CCC1)c1cnc(Nc2cccc(Br)c2)cc1C(F)(F)F [Example 120, N-Cyclobutylmethyl-6-(3-bromo-phenylamino)-4-tri-fluoromethyl-nicotinamide] | < 300 | > 50 |
| O=C(NCC1CCCC1)c1cnc(Nc2cccc(Br)c2)cc1C(F)(F)F [Example 122, N-Cyclopentylmethyl-6-(3-bromo-phenylamino)-4-tri-fluoromethyl-nicotinamide] | < 300 | > 50 |
| O=C(NCC1CC1)c1cnc(Nc2cccc(Br)c2)cc1C(F)(F)F [Example 123, N-Cyclopropylmethyl-6-(3-bromo-phenylamino)-4-tri-fluoromethyl-nicotinamide] | < 300 | > 50 |
| O=C(NCC1CCC1)c1cnc(Nc2ccccc2F)cc1C(F)(F)F [Example 124, N-Cyclobutylmethyl-6-(2-fluoro-phenylamino)-4-tri-fluoromethyl-nicotinamide] | < 300 | > 50 |
| O=C(NCC1CCCCCC1)c1cnc(Nc2cccc(F)c2)cc1C(F)(F)F [Example 125, N-Cycloheptylmethyl-6-(3-fluoro-phenylamino)-4-tri-fluoromethyl-nicotinamide] | < 300 | > 50 |
| O=C(NC1CCC1)c1cnc(Nc2cccc(F)c2)cc1C(F)(F)F [Example 127, N-Cyclobutyl-6-(3-fluoro-phenylamino)-4-trifluoro-methyl-nicotinamide] | < 300 | > 50 |
| O=C(NCC1CCCCC1)c1cnc(Nc2cccc(F)c2)cc1C(F)(F)F [Example 128, N-Cyclohexylmethyl-6-(3-fluoro-phenylamino)-4-tri-fluoromethyl-nicotinamide] | < 300 | > 50 |
| O=C(NCC1CCC1)c1cnc(Nc2cccc(F)c2)cc1C(F)(F)F [Example 129, N-Cyclobutylmethyl-6-(3-fluoro-phenylamino)-4-tri-fluoromethyl-nicotinamide] | < 300 | > 50 |
| O=C(NCC1CCCC1)c1cnc(Nc2cccc(F)c2)cc1C(F)(F)F [Example 130, N-Cyclopentylmethyl-6-(3-fluoro-phenylamino)-4-tri-fluoromethyl-nicotinamide] | < 300 | > 50 |
| CC(C)CNC(=O)c1cnc(Nc2cccc(F)c2)cc1C(F)(F)F [Example 131, N-Isobutyl-6-(3-fluoro-phenylamino)-4-trifluoro-methyl-nicotinamide] | < 300 | > 50 |
| O=C(NCC1CC1)c1cnc(Nc2cccc(F)c2)cc1C(F)(F)F [Example 132, N-Cyclopropylmethyl-6-(3-fluoro-phenylamino)-4-tri-fluoromethyl-nicotinamide] | < 300 | > 50 |
| O=C(NCC1CCS(=O)(=O)C1)c1cnc(Nc2cccc(F)c2)cc1C(F)(F)F (centres unmarked) [Example 133, N-(1,1-Dioxo-tetrahydro-thiophen-3-ylmethyl)-6-(3-fluoro-phenylamino)-4-trifluoromethyl-nicotinamide] | < 300 | > 50 |

| Structure (SMILES) | EC50 [nM] | Emax [%] |
| --- | --- | --- |
| O=C(NCC1CCC1)c1cnc(Nc2ccc(F)cc2)cc1C(F)(F)F [Example 134, N-Cyclobutylmethyl-6-(4-fluoro-phenylamino)-4-trifluoromethyl-nicotinamide] | < 300 | > 50 |
| O=C(NCC1CCOCC1)c1cnc(Nc2cccc(Cl)c2Cl)cc1C(F)(F)F [Example 135, N-(Tetrahydropyran-4-yl-methyl)-6-(2,3-dichloro-phenylamino)-4-trifluoro-methyl-nicotinanhide] | < 300 | > 50 |
| O=C(NCC1CCCCCC1)c1cnc(Nc2cccc(Cl)c2Cl)cc1C(F)(F)F [Example 137, N-Cycloheptylmethyl-6-(2,3-dichloro-phenylamino)-4-tri-fluoromethyl-nicotinamide] | < 300 | > 50 |
| O=C(NCC1CCCCC1)c1cnc(Nc2ccc(Cl)cc2Cl)cc1C(F)(F)F [Example 138, N-Cyclohexylmethyl-6-(2,4-dichloro-phenylamino)-4-tri-fluoromethyl-nicotinamide] | < 300 | > 50 |
| O=C(NCC1CCCCCC1)c1cnc(Nc2ccc(Cl)cc2Cl)cc1C(F)(F)F [Example 139, N-Cycloheptylmethyl-6-(2,4-dichloro-phenylamino)-4-tri-fluoromethyl-nicotinamide] | < 300 | > 50 |
| O=C(NC1CCC1)c1cnc(Nc2ccc(Cl)cc2Cl)cc1C(F)(F)F [Example 140, N-Cyclobutyl-6-(2,4-dichloro-phenylamino)-4-trifluoro-methyl-nicotinamide] | < 300 | > 50 |
| O=C(NCC1CCCC1)c1cnc(Nc2ccc(Cl)cc2Cl)cc1C(F)(F)F [Example 141, N-Cyclopentylmethyl-6-(2,4-dichloro-phenylamino)-4-tri-fluoromethyl-nicotinamide] | – | > 50 |
| O=C(NCC1CCC1)c1cnc(Nc2ccc(Cl)cc2Cl)cc1C(F)(F)F [Example 142, N-Cyclobutylmethyl-6-(2,4-dichloro-phenylamino)-4-tri-fluoromethyl-nicotinamide] | < 300 | > 50 |
| CC(C)CNC(=O)c1cnc(Nc2ccc(Cl)cc2Cl)cc1C(F)(F)F [Example 143, N-Isobutyl-6-(2,4-dichloro-phenylamino)-4-trifluoro-methyl-nicotinamide] | < 300 | > 50 |
| O=C(NCC1CC1)c1cnc(Nc2ccc(Cl)cc2Cl)cc1C(F)(F)F [Example 144, N-Cyclopropylmethyl-6-(2,4-dichloro-phenylamino)-4-tri-fluoromethyl-nicotinamide] | < 300 | > 50 |
| O=C(NCC1CCCCC1)c1cnc(Nc2cc(Cl)cc(Cl)c2)cc1C(F)(F)F [Example 146, N-Cyclohexylmethyl-6-(3,5-dichloro-phenytamino)-4-tri-fluoromethyl-nicotinamide] | < 300 | > 50 |
| O=C(NCC1CCOCC1)c1cnc(Nc2cc(Cl)cc(Cl)c2)cc1C(F)(F)F [Example 147, N-(Tetrahydropyran-4-yl-methyl)-6-(3,5-dichloro-phenylamino)-4-trifluoro-methyl-nicotinamide] | < 300 | > 50 |
| O=C(NC1CCC1)c1cnc(Nc2cc(Cl)cc(Cl)c2)cc1C(F)(F)F [Example 148, N-Cyclobutyl-6-(3,5-dichloro-phenylamino)-4-trifluoro-methyl-nicotinamide] | < 300 | > 50 |
| O=C(NCC1CCCC1)c1cnc(Nc2cc(Cl)cc(Cl)c2)cc1C(F)(F)F [Example 149, N-Cyclopentylmethyl-6-(3,5-dichloro-phenylamino)-4-tri-fluoromethyl-nicotinamide] | < 300 | > 50 |
| O=C(NCC1CCC1)c1cnc(Nc2cc(Cl)cc(Cl)c2)cc1C(F)(F)F [Example 150, N-Cyclobutylmethyl-6-(3,5-dichloro-phenylamino)-4-tri-fluoromethyl-nicotinamide] | < 300 | > 50 |
| CC(C)CNC(=O)c1cnc(Nc2cc(Cl)cc(Cl)c2)cc1C(F)(F)F [Example 151, N-Isobutyl-6-(3,5-dichloro-phenylamino)-4-trifluoro-methyl-nicotinamide] | < 300 | > 50 |
| O=C(NCC1CC1)c1cnc(Nc2cc(Cl)cc(Cl)c2)cc1C(F)(F)F [Example 152, N-Cyclopropylmethyl-6-(3,5-dichloro-phenylamino)-4-tri-fluoromethyl-nicotinamide] | < 300 | > 50 |
| CC(C)CNC(=O)c1cnc(Nc2ccc(Cl)c(Cl)c2)cc1C(F)(F)F [Example 153, N-Isobutyl-6-(3,4-dichloro-phenylamino)-4-trifluoro-methyl-nicotinamide] | < 300 | > 50 |
| O=C(NC1CCC1)c1cnc(Nc2ccc(Cl)c(Cl)c2)cc1C(F)(F)F [Example 154, N-Cyclobutyl-6-(3,4-dichloro-phenylamino)-4-trifluoro-methyl-nicotinamide] | < 300 | > 50 |
